# Source: ChEMBL document CHEMBL4419178, “Yap1 inhibitors that target the interaction of yap1 with oct4” (2018)
# The source made the active and inactive calls. The calls are words filed in the database; no cut-off is given here.
# Key:
# [1] = biological target: Transcriptional coactivator YAP1 (Homo sapiens) (UniProt P46937); assay: Inhibition of YAP1 (unknown origin) assessed as disruption in YAP1/OCT4 interaction at 10 uM by ELISA relative to control
# NCI-H1650 [2] = assay: Inhibition of self-renewal capacity in stem-like side-population cells of human NCI-H1650 cells assessed as reduction in number of spheres at 1 to 20 uM incubated for 10 days by sphere formation assay; format: functional, cell-based
# [3] = Lipophilicity, logP of the compound; format: physicochemical; conditions: octanol/water
# [4] = biological target: Transcriptional coactivator YAP1 (Homo sapiens) (UniProt P46937); assay: Inhibition of YAP1 (unknown origin) assessed as disruption in YAP1/OCT4 interaction at 50 uM by cell based assay
# [5] = biological target: Transcriptional coactivator YAP1 (Homo sapiens) (UniProt P46937); assay: Inhibition of YAP1 (unknown origin) assessed as disruption in YAP1/OCT4 interaction at 5 uM by ELISA relative to control
# NCI-H1703 [6] = assay: Inhibition of YAP1/TEAD2 interaction in human NCI-H1703 cells assessed as suppression of CTGF mRNA expression at 5 to 10 uM incubated for 72 hrs by RT-PCR method; format: cell-based
# [7] = biological target: Transcriptional coactivator YAP1 (Homo sapiens) (UniProt P46937); assay: Inhibition of YAP1 in human NCI-H1650 cells assessed as suppression of HK2 mRNA expression at 5 to 10 uM incubated for 72 hrs by RT-PCR method; format: cell-based
# NCI-H1975 = assay: Cytotoxicity in gefitinib and erlotinib resistant human NCI-H1975 cells assessed as reduction in cell viability at 1 to 10 uM incubated for 72 hrs by MTT assay; format: functional, cell-based
# [8] = biological target: Transcriptional coactivator YAP1 (Homo sapiens) (UniProt P46937); assay: Inhibition of YAP1 in human NCI-H1650 cells assessed as reduction in PDK2 protein expression at 10 uM incubated for 72 hrs by Western blot analysis; format: cell-based
# [9] = biological target: Transcriptional coactivator YAP1 (Homo sapiens) (UniProt P46937); assay: Inhibition of YAP1 in human NCI-H1650 cells assessed as reduction in Sox2 protein expression at 10 uM incubated for 72 hrs by Western blot analysis; format: cell-based
# [10] = biological target: Transcriptional coactivator YAP1 (Homo sapiens) (UniProt P46937); assay: Inhibition of YAP1 in human NCI-H1703 cells assessed as suppression of PDK2 mRNA expression at 5 to 10 uM incubated for 72 hrs by RT-PCR method; format: cell-based
# NCI-H1703 [11] = assay: Inhibition of adherence-independent cell growth in human NCI-H1703 cells at 5 uM incubated for 33 days; format: functional, cell-based
# [12] = biological target: Transcriptional coactivator YAP1 (Homo sapiens) (UniProt P46937); assay: Inhibition of YAP1 in human NCI-H1650 cells assessed as suppression of Sox2 mRNA expression at 5 to 10 uM incubated for 72 hrs by RT-PCR method; format: cell-based
# NCI-H146 [13] = assay: Effect on expression of Nanog mRNA expression in human NCI-H146 cells at 5 to 10 uM incubated for 72 hrs by RT-PCR method; format: cell-based; conditions: nci-h146, 72 h
# [14] = biological target: Transcriptional coactivator YAP1 (Homo sapiens) (UniProt P46937); assay: Inhibition of YAP1 in human NCI-H1650 cells assessed as suppression of vimentin mRNA expression at 5 to 10 uM incubated for 72 hrs by RT-PCR method; format: cell-based
# [15] = biological target: Transcriptional coactivator YAP1 (Homo sapiens) (UniProt P46937); assay: Inhibition of YAP1 in human A549 cells assessed as reduction in PDK2 protein expression at 10 uM incubated for 72 hrs by Western blot analysis; format: cell-based
# [16] = biological target: Transcriptional coactivator YAP1 (Homo sapiens) (UniProt P46937); assay: Inhibition of YAP1 in human NCI-H146 cells assessed as suppression of Sox2 mRNA expression at 5 to 10 uM incubated for 72 hrs by RT-PCR method; format: cell-based
# NCI-H1703 [17] = assay: Inhibition of adherence-independent cell growth in human NCI-H1703 cells at 10 uM incubated for 33 days; format: functional, cell-based
# [18] = biological target: Transcriptional coactivator YAP1 (Homo sapiens) (UniProt P46937); assay: Inhibition of YAP1 in human A549 cells assessed as reduction in Sox2 protein expression at 10 uM incubated for 72 hrs by Western blot analysis; format: cell-based
# [19] = biological target: Transcriptional coactivator YAP1 (Homo sapiens) (UniProt P46937); assay: Inhibition of YAP1 in human NCI-H1703 cells assessed as suppression of vimentin mRNA expression at 5 to 10 uM incubated for 72 hrs by RT-PCR method; format: cell-based
# NCI-H146 [20] = assay: Effect on expression of Oct4 mRNA expression in human NCI-H146 cells at 5 to 10 uM incubated for 72 hrs by RT-PCR method; format: cell-based; conditions: nci-h146, 72 h
# [21] = biological target: Transcriptional coactivator YAP1 (Homo sapiens) (UniProt P46937); assay: Inhibition of YAP1 in human NCI-H146 cells assessed as suppression of PDK2 mRNA expression at 5 to 10 uM incubated for 72 hrs by RT-PCR method; format: cell-based
# NCI-H1650 [22] = assay: Inhibition of adherence-independent cell growth in human NCI-H1650 cells at 5 uM incubated for 33 days; format: functional, cell-based
# NCI-H1650 [23] = assay: Effect on expression of Oct4 mRNA expression in human NCI-H1650 cells at 5 to 10 uM incubated for 72 hrs by RT-PCR method; format: cell-based; conditions: nci-h1650, 72 h
# NCI-H1650 [24] = assay: Inhibition of adherence-independent cell growth in human NCI-H1650 cells at 10 uM incubated for 33 days; format: functional, cell-based
# NCI-H1650 [25] = assay: Inhibition of YAP1/TEAD2 interaction in human NCI-H1650 cells assessed as suppression of CTGF mRNA expression at 5 to 10 uM incubated for 72 hrs by RT-PCR method; format: cell-based
# [26] = biological target: Transcriptional coactivator YAP1 (Homo sapiens) (UniProt P46937); assay: Inhibition of YAP1 in human NCI-H146 cells assessed as suppression of HK2 mRNA expression at 5 to 10 uM incubated for 72 hrs by RT-PCR method; format: cell-based
# NCI-H1703 [27] = assay: Effect on expression of Oct4 mRNA expression in human NCI-H1703 cells at 5 to 10 uM incubated for 72 hrs by RT-PCR method; format: cell-based; conditions: nci-h1703, 72 h
# [28] = biological target: Transcriptional coactivator YAP1 (Homo sapiens) (UniProt P46937); assay: Inhibition of YAP1 in human A549 cells assessed as reduction in c-Myc protein expression at 10 uM incubated for 72 hrs by Western blot analysis; format: cell-based
# [29] = biological target: Transcriptional coactivator YAP1 (Homo sapiens) (UniProt P46937); assay: Inhibition of YAP1 in human NCI-H1650 cells assessed as suppression of PD-L1 mRNA expression at 5 to 10 uM incubated for 72 hrs by RT-PCR method; format: cell-based
# [30] = biological target: Transcriptional coactivator YAP1 (Homo sapiens) (UniProt P46937); assay: Inhibition of YAP1 in human NCI-H1703 cells assessed as suppression of Sox2 mRNA expression at 5 to 10 uM incubated for 72 hrs by RT-PCR method; format: cell-based
# [31] = biological target: Transcriptional coactivator YAP1 (Homo sapiens) (UniProt P46937); assay: Inhibition of YAP1 in human NCI-H1650 cells assessed as suppression of fibronectin mRNA expression at 5 to 10 uM incubated for 72 hrs by RT-PCR method; format: cell-based
# [32] = biological target: Transcriptional coactivator YAP1 (Homo sapiens) (UniProt P46937); assay: Inhibition of YAP1 in human NCI-H1703 cells assessed as suppression of HK2 mRNA expression at 5 to 10 uM incubated for 72 hrs by RT-PCR method; format: cell-based
# NCI-H1703 [33] = assay: Effect on expression of Nanog mRNA expression in human NCI-H1703 cells at 5 to 10 uM incubated for 72 hrs by RT-PCR method; format: cell-based; conditions: nci-h1703, 72 h
# [34] = biological target: Transcriptional coactivator YAP1 (Homo sapiens) (UniProt P46937); assay: Inhibition of YAP1 in human NCI-H1703 cells assessed as suppression of PD-L1 mRNA expression at 5 to 10 uM incubated for 72 hrs by RT-PCR method; format: cell-based
# NCI-H146 [35] = assay: Inhibition of self-renewal capacity in methotrexate insensitive stem-like side-population cells of human NCI-H146 cells assessed as reduction in number of spheres at 2 uM incubated for 3 days after 7 days methotrexate exposure by sphere formation assay; format: functional
# [36] = biological target: Transcriptional coactivator YAP1 (Homo sapiens) (UniProt P46937); assay: Inhibition of YAP1 in human NCI-H1703 cells assessed as suppression of fibronectin mRNA expression at 5 to 10 uM incubated for 72 hrs by RT-PCR method; format: cell-based
# [37] = biological target: Transcriptional coactivator YAP1 (Homo sapiens) (UniProt P46937); assay: Inhibition of YAP1 in human NCI-H1650 cells assessed as reduction in c-Myc protein expression at 10 uM incubated for 72 hrs by Western blot analysis; format: cell-based
# NCI-H1650 [38] = assay: Effect on expression of Nanog mRNA expression in human NCI-H1650 cells at 5 to 10 uM incubated for 72 hrs by RT-PCR method; format: cell-based; conditions: nci-h1650, 72 h
# [39] = biological target: Transcriptional coactivator YAP1 (Homo sapiens) (UniProt P46937); assay: Inhibition of YAP1 in human NCI-H1650 cells assessed as suppression of PDK2 mRNA expression at 5 to 10 uM incubated for 72 hrs by RT-PCR method; format: cell-based
# Sequence of Transcriptional coactivator YAP1 (Homo sapiens) (P46937 whole entry): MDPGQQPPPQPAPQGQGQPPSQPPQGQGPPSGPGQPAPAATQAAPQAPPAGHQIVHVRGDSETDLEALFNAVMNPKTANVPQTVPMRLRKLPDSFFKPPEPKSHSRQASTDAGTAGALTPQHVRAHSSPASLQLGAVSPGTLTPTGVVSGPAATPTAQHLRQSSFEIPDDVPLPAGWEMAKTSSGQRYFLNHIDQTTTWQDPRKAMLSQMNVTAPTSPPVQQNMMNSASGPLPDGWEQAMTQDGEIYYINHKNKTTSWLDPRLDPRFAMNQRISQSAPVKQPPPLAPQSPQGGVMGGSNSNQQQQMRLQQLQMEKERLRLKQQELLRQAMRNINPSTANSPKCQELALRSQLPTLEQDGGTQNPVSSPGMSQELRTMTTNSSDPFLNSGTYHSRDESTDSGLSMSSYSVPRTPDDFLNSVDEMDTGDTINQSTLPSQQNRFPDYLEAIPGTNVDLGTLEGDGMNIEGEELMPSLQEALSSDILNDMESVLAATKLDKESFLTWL
smiles,measurement,setting,value
COC(=O)[C@H](Cc1ccc(OCc2ccccc2)cc1)NC(=O)CC1CCN(C(=O)OC(C)(C)C)CC1,inhibition,[1],80.8%
same,inhibition,NCI-H1650 [2],Active
same,logP,[3],3.9 to 3.94
same,inhibition,[4],> 75%
same,inhibition,[5],72.6%
COC(=O)[C@H](Cc1ccc(OCc2ccccc2)cc1)NC(=O)CC1CCN(C(=O)CCCc2ccccc2)CC1,inhibition,NCI-H1703 [6],inactive
same,inhibition,[7],Active
same,Activity,NCI-H1975,Active
same,inhibition,[8],Active
same,inhibition,[9],Active
same,inhibition,[10],Active
same,inhibition,NCI-H1703 [11],Active
same,inhibition,[12],Active
same,Activity,NCI-H146 [13],Non-Toxic
same,inhibition,[14],Active
same,inhibition,[15],Active
same,inhibition,[16],Active
same,inhibition,NCI-H1703 [17],Active
same,inhibition,[18],Active
same,inhibition,[19],Active
same,Activity,NCI-H146 [20],Non-Toxic
same,inhibition,[21],Active
same,inhibition,NCI-H1650 [22],Active
same,Activity,NCI-H1650 [23],Non-Toxic
same,inhibition,NCI-H1650 [24],Active
same,inhibition,NCI-H1650 [25],inactive
same,inhibition,[26],Active
same,Activity,NCI-H1703 [27],Non-Toxic
same,inhibition,[28],Active
same,inhibition,[29],Active
same,inhibition,[30],Active
same,inhibition,[31],Active
same,inhibition,[32],Active
same,Activity,NCI-H1703 [33],Non-Toxic
same,inhibition,[34],Active
same,inhibition,NCI-H146 [35],Active
same,inhibition,[36],Active
same,inhibition,[37],Active
same,Activity,NCI-H1650 [38],Non-Toxic
same,inhibition,[39],Active
